For data set [1], the target named is T1, OCTN2 (organic cation/carnitine transporter 2) (Mus musculus, UniProt Q9Z0E8).
T1 sequence (Q9Z0E8 whole entry): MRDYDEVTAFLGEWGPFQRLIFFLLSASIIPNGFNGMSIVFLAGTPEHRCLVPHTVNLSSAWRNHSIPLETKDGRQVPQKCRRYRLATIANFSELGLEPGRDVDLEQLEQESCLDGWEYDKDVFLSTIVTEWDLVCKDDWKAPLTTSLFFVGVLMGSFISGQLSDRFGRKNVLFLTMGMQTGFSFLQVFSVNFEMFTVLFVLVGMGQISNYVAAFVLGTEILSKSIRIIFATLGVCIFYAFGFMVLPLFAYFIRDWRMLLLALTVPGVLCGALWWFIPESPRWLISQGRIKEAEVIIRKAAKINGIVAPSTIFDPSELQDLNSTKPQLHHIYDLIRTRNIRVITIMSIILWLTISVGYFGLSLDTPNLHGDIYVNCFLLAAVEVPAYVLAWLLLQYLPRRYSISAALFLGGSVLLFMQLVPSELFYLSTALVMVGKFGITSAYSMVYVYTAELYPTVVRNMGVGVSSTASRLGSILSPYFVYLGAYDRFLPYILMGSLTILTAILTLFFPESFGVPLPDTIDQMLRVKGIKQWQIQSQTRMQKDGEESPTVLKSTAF
The data set can be described thus: TP_TRANSPORTER: inhibition of Carnitine uptake (Carnitine: 0.01 uM, Acetyl-beta-methylcholine: 500 uM) in OCTN2-expressing HEK293 cells. It counts as functional, cell-based. The arrangement: scale not given: the % may be the effect or the level left. To be noted: human, HEK293 cells that express OCTN2, probe carnitine; read-out: Activity.

The target of data set [2] is T1, OCTN2 (organic cation/carnitine transporter 2). Nature of the data set: TP_TRANSPORTER: inhibition of Carnitine uptake (Carnitine: 0.01 uM, MPP+: 500 uM) in OCTN2-expressing HEK293 cells. It is filed as functional, cell-based. The arrangement: scale not given: the % may be the effect or the level left. Conditions: human, HEK293 cells that express OCTN2, probe carnitine; read-out: Activity.

The target in data set [3] is T2, Organic cation/carnitine transporter 2 (Mus musculus, UniProt Q9Z0E8).
T2 sequence (Q9Z0E8 whole entry): T1 sequence (Q9Z0E8 whole entry)
Nature of the data set: TP_TRANSPORTER: uptake in OCTN2-expressing HEK293 cells. It is filed as functional, cell-based. Conditions: human.

Data set [4] has as its target T1, OCTN2 (organic cation/carnitine transporter 2). The data set can be described thus: TP_TRANSPORTER: inhibition of Carnitine uptake (Carnitine: 0.01 uM, Acetylcholine: 5000 uM) in OCTN2-expressing HEK293 cells. It counts as functional, cell-based. On the set-up: scale not given: the % may be the effect or the level left. Conditions: human, HEK293 cells that express OCTN2, probe carnitine; read-out: Activity.

The target of data set [5] is T2, Organic cation/carnitine transporter 2. The data set can be described thus: TP_TRANSPORTER: inhibition of Carnitine uptake (Carnitine: 0.01 uM, alpha-KG: 500 uM) in OCTN2-expressing HEK293 cells. It counts as functional, cell-based. To be noted: human, hek293, 500 µM.
Data set [6] has the same target. The data set can be described thus: TP_TRANSPORTER: inhibition of Carnitine uptake (Carnitine: 0.01 uM, PAH: 500 uM) in OCTN2-expressing HEK293 cells. It counts as functional, cell-based. Conditions: human, hek293, 500 µM.
Data set [7] addresses T1, OCTN2 (organic cation/carnitine transporter 2). The data set can be described thus: in vitro. Conditions: human, HEK293 cells that express OCTN2, probe carnitine.
Description: TP_TRANSPORTER: inhibition of Carnitine uptake (Carnitine: 0.01 uM, Choline: 500 uM) in OCTN2-expressing HEK293 cells
For data set [8] the target is unchanged. The data set can be described thus: TP_TRANSPORTER: inhibition of Carnitine uptake (Carnitine: 0.01 uM, Diphenhydramine: 500 uM) in OCTN2-expressing HEK293 cells. Conditions: human, HEK293 cells that express OCTN2, probe carnitine; read-out: Activity. It counts as functional, cell-based. The arrangement: scale not given: the % may be the effect or the level left.

The target is the same in data set [9]. Nature of the data set: in vitro. Conditions: human, HEK293 cells that express OCTN2, probe carnitine. The source holds these as a separate data set.
Description: TP_TRANSPORTER: inhibition of Carnitine uptake (Carnitine: 0.01 uM, Dapamine: 5000 uM) in OCTN2-expressing HEK293 cells
Data set [10] has as its target T2, Organic cation/carnitine transporter 2. Nature of the data set: TP_TRANSPORTER: inhibition of Carnitine uptake (Carnitine: 0.01 uM, Guanidine: 500 uM) in OCTN2-expressing HEK293 cells. It is filed as functional, cell-based. Conditions: human, hek293, 500 µM.
Data set [11] addresses T1, OCTN2 (organic cation/carnitine transporter 2). The data set can be described thus: TP_TRANSPORTER: inhibition of Carnitine uptake (Carnitine: 0.01 uM, Lidocaine: 500 uM) in OCTN2-expressing HEK293 cells. It is filed as functional, cell-based. The arrangement: scale not given: the % may be the effect or the level left. To be noted: human, HEK293 cells that express OCTN2, probe carnitine; read-out: Activity.

Data set [12] concerns the target T2, Organic cation/carnitine transporter 2. The data set can be described thus: TP_TRANSPORTER: inhibition of Carnitine uptake (Carnitine: 0.01 uM, NMN: 500 uM) in OCTN2-expressing HEK293 cells. Conditions: human, hek293, 500 µM. It counts as functional, cell-based.
The target of data set [13] is T1, OCTN2 (organic cation/carnitine transporter 2). The data set can be described thus: TP_TRANSPORTER: inhibition of Carnitine uptake (Carnitine: 0.01 uM, Norepinephrine: 5000 uM) in OCTN2-expressing HEK293 cells. It counts as functional, cell-based. On the set-up: scale not given: the % may be the effect or the level left. Conditions: human, HEK293 cells that express OCTN2, probe carnitine; read-out: Activity.

The target is the same in data set [14]. The data set can be described thus: TP_TRANSPORTER: inhibition of Carnitine uptake (Carnitine: 0.01 uM, Procainamide: 500 uM) in OCTN2-expressing HEK293 cells. It counts as functional, cell-based. The arrangement: scale not given: the % may be the effect or the level left. Conditions: human, HEK293 cells that express OCTN2, probe carnitine; read-out: Activity.

Data set [15] has the same target. The data set can be described thus: TP_TRANSPORTER: inhibition of Carnitine uptake (Carnitine: 0.01 uM, Pyrilamine: 500 uM) in OCTN2-expressing HEK293 cells. It is filed as functional, cell-based. On the set-up: scale not given: the % may be the effect or the level left. To be noted: human, HEK293 cells that express OCTN2, probe carnitine; read-out: Activity.
The target is the same in data set [16]. Nature of the data set: TP_TRANSPORTER: inhibition of Carnitine uptake (Carnitine: 0.01 uM, Quinidine: 500 uM) in OCTN2-expressing HEK293 cells. It counts as functional, cell-based. The arrangement: scale not given: the % may be the effect or the level left. Conditions: human, HEK293 cells that express OCTN2, probe carnitine; read-out: Activity.
Data set [17] has the same target. The data set can be described thus: TP_TRANSPORTER: inhibition of Carnitine uptake (Carnitine: 0.01 uM, Serotonin: 5000 uM) in OCTN2-expressing HEK293 cells. On the set-up: scale not given: the % may be the effect or the level left. To be noted: human, HEK293 cells that express OCTN2, probe carnitine; read-out: Activity. It counts as functional, cell-based.
For data set [18] the target is unchanged. The data set can be described thus: in vitro. Conditions: human, HEK293 cells that express OCTN2, probe carnitine. This is another data set of the same source.
Description: TP_TRANSPORTER: inhibition of Carnitine uptake (Carnitine: 0.01 uM, TEA: 500 uM) in OCTN2-expressing HEK293 cells
Data set [19] shares this target. The data set can be described thus: in vitro. Conditions: human, HEK293 cells that express OCTN2, probe carnitine. The source holds these as a separate data set.
Description: TP_TRANSPORTER: inhibition of Carnitine uptake (Carnitine: 0.01 uM, Thiamine: 5000 uM) in OCTN2-expressing HEK293 cells
The target is the same in data set [20]. The data set can be described thus: TP_TRANSPORTER: inhibition of Carnitine uptake (Carnitine: 0.01 uM, Verapamil: 500 uM) in OCTN2-expressing HEK293 cells. It counts as functional, cell-based. The arrangement: scale not given: the % may be the effect or the level left. To be noted: human, HEK293 cells that express OCTN2, probe carnitine; read-out: Activity.

Structures are written as SMILES.

Regarding `CC(=O)OC(C)C[N+](C)(C)C` (centres undefined), the activity at 500 µM in data set [1] was 82.5%. As for `C[n+]1ccc(-c2ccccc2)cc1`, the activity at 500 µM in data set [2] is 72.9%. Besides, the Activity entry in [3] is “substrate [+]”.

Take `CC(=O)O[C@H](CC(=O)[O-])C[N+](C)(C)C` [ACETYLCARNITINE]: the Activity result in data set [3] is “substrate [+]”.

In the case of `CC(=O)OCC[N+](C)(C)C` [ACETYLCHOLINE], the activity at 5000 µM in data set [4] is 34.2%. In the case of `O=C(O)CCC(=O)C(=O)O` [ALPHA-KETOGLUTARIC ACID], in data set [5], the Activity entry is “is not an inhibitor [-]”. Turning to `Nc1ccc(C(=O)NCC(=O)O)cc1` [AMINOHIPPURIC ACID], the figures for the Activity result in data set [6] and in data set [3] were “is not an inhibitor [-]” and “is not a substrate [-]”, respectively. In turn, `C[N+](C)(C)CCO` [CHOLINE] came in with an activity at 500 µM in data set [7] of 74.6%. `CN(C)CCOC(c1ccccc1)c1ccccc1` [DIPHENHYDRAMINE]: in [8], the activity at 500 µM came to 43.6%. In data set [9], `NCCc1ccc(O)c(O)c1` [DOPAMINE] yielded an activity at 5000 µM of 70.9%.

Take `N=C(N)N` [GUANIDINE]: the Activity result in data set [10] was “is not an inhibitor [-]”. Turning to `CCN(CC)CC(=O)Nc1c(C)cccc1C` [LIDOCAINE], in data set [11], the activity at 500 µM came out at 57.1%.

`CNC(=O)c1cccnc1` [NICOTINYL METHYLAMIDE]: the Activity result in data set [12] was “is not an inhibitor [-]”. As for `NC[C@H](O)c1ccc(O)c(O)c1` [NOREPINEPHRINE], the activity at 5000 µM in [13] amounted to 70.9%.

For `CCN(CC)CCNC(=O)c1ccc(N)cc1` [PROCAINAMIDE], in data set [14], the activity at 500 µM worked out at 81.3%. Turning to `COc1ccc(CN(CCN(C)C)c2ccccn2)cc1` [PYRILAMINE], the activity at 500 µM in data set [15] worked out at 36.3%. For the same molecule, in data set [3], the Activity result is “substrate [+]”. Regarding `C=C[C@H]1C[N@@]2CC[C@H]1C[C@@H]2[C@@H](O)c1ccnc2ccc(OC)cc12` [QUINIDINE], in data set [16], the activity at 500 µM was determined as 6.1%. For the molecule `NCCc1c[nH]c2ccc(O)cc12` [SEROTONIN], the activity at 5000 µM in data set [17] is 51.3%. In the case of `CC[N+](CC)(CC)CC` [TETRYLAMMONIUM], the activity at 500 µM in [18] was found to be 15.4%.

The molecule `Cc1ncc(C[n+]2csc(CCO)c2C)c(N)n1` [THIAMINE ION] had an activity at 5000 µM in [19] of 65.9%.

Take `COc1ccc(CCN(C)CCCC(C#N)(c2ccc(OC)c(OC)c2)C(C)C)cc1OC` (centres undefined) [VERAPAMIL]: the activity at 500 µM in data set [20] is 1.3%. The Activity result in [3] is “substrate [+]”.
